Tests used:
[1] = tested on: normal mice; assay: Hematological parameters of normal mice treated with ART; format: in vivo, BALB/c mice
Procedure: Blood was drawn for hematological estimations by thoracotomy and collected in heparinized vials. Blood was diluted using RBC diluting fluid (1: 1000) and WBC diluting fluid (1:100), and RBCs and WBCs were counted using a Neubauer counting chamber. Differential count was performed on blood smear stained with Leishman stain and observed under a microscope at 40X magnification (Dewinter Optical Inc., India). The percentage of lymphocytes, neutrophils, monocytes, eosinophils and basophils were recorded according to their nuclear structure ([27]). Hemoglobin content was estimated using Drabkin’s solution (1g sodium bicarbonate, 0.05g potassium cyanide and 0.2g potassium ferricyanide per liter), which lysed RBCs to convert hemoglobin to cyanmethemoglobin. Finally, the hemoglobin content of the test and the standard samples were obtained in gm/dl by recording the O.D. at 540 nm, and using the formula: O.D of test/O.D of standard x concentration of standard ([28]).

[2] = tested on: tumor-bearing mice; assay: Mean survival time of tumor-bearing mice; format: in vivo, BALB/c mice; conditions: for MST: tumor-bearing mice, observed 90 days
Procedure: MST was calculated using the equation: MST (days) = (day of first mortality + day of last mortality)/2. The increase in survivability between treated and untreated groups was estimated by ILS% = [(MST of treated set/MST of untreated set) -1] X 100 ([26]).

[3] = tested on: 4T1 mammary tumors; assay: Tumor size, weight and volume in 4T1 mammary tumor model; format: in vivo, BALB/c mice; conditions: 12.5, 25 and 50 mg/kg body weight of ART vs untreated tumor-bearing mice
Procedure: Mouse mammary 4T1 cells in passage numbers between 7 and 12 (10^4 cells/ml in 50 µl PBS) were injected into the inguinal 4th mammary fat pad of BALB/c mice ([23], [24]). Normal mice received an equal volume of sterile PBS. A palpable tumor was allowed to develop for 14 days ([24]). […] Normal (mammary fat pad surrounding the 4th inguinal mammary pad), mammary tumor, and organs like lungs, kidney, liver, and blood were collected at the end of the experimental schedule. Body weight and tumor volume of each mouse were recorded daily during the tenure of the experiment. Tumor volume was calculated using the following formula: length (mm) × width^2 (mm) × 0.52 ([25]).

[4] = tested on: 4T1 cells; assay: Cell viability assay (MTT); format: cell-based, murine; conditions: Mus musculus, 24 hours
Procedure: Human triple negative breast cancer cells MDA-MB-231 and murine mammary cancer cells 4T1 were obtained from National Centre for Cell Sciences, Pune, India. Cells were maintained in complete Dulbecco’s Modified Eagle Medium (DMEM) supplemented with 10% FBS and 1% penicillin/streptomycin, and incubated at 37°C in 5% CO2 - 95% humidified atmosphere. Cells in log phase of growth was used for all subsequent experiments ([21]). 1 x 10^5 viable cells were seeded in a 96-well plate. […] Following treatment, wells were washed to remove the media and 100 µl of PBS was added to each well. Finally, 10 µl of MTT solution (5 mg/mL in PBS) was added and incubated at 37°C for 3 hours. The purple crystals formed were dissolved in 150 µl of DMSO. Absorbance was measured at 570 nm in a multi-plate reader Varioskan™ Lux (Thermo Fisher Scientific, USA; [21]).

[5] = tested on: tumor cells; assay: Cell cycle assay (PI, flow cytometry) of cells isolated from tumors; format: in vivo, BALB/c mice; conditions: 25 and 50 mg/kg bodyweight ART vs untreated tumor-bearing mice, p<0.05
Procedure: Cells (1 x 10^6) were isolated from tissues by collagenase-hyaluronidase digestion and fixed in ice-cold ethanol at -20°C. Samples were washed and resuspended in PBS containing 40 µg/mL RNase A for 1 hr. The cells were then stained with 30 µg/mL propidium iodide in the dark for 30 minutes and analyzed by flow cytometry using the BD Verse (BD Biosciences, USA). Data were analyzed using the BD FACSuite™ software ([35]).

[6] = tested on: beclin1 and LC3α/β; assay: Western blot of autophagic markers in tumor tissues; format: in vivo, BALB/c mice; conditions: ART dose-dependent
Procedure: Normal and tumor tissues were homogenized in ice-cold radioimmunoprecipitation assay (RIPA) buffer containing a protease inhibitor cocktail. Proteins were resolved by 10% sodium dodecyl sulphate-polyacrylamide gel electrophoresis (SDS-PAGE), transferred onto polyvinylidene difluoride (PVDF) membranes, blocked with 5% fat-free milk and incubated with primary antibodies (1:1000 dilution) overnight at 4°C. Blots were subsequently washed and incubated with respective secondary antibodies, tagged with horseradish peroxidase. Protein expression was detected using enhanced chemiluminescence (ECL) kit ([37]). Blots were analyzed using the Gel Doc XR and band intensity quantified using ImageJ software (NIH, USA).

[7] = tested on: tumor cells; assay: Autophagic cells (acridine orange, flow cytometry) in cells isolated from tumors; format: in vivo, BALB/c mice; conditions: tumor-bearing mice, T+6.25 to T+50 mg/kg, vs Tumor
Procedure: Acidic vesicular organelles (AVOs) were examined by microscopy and quantified using flow cytometry of acridine orange (AO) stained cells. Cells were isolated from tissues by collagenase-hyaluronidase digestion and stained with AO (1µg/ml) by incubation at 37°C for 15 minutes in dark. Following subsequent PBS washes, the cells were observed under Olympus laser-scanning confocal microscope (FV-10 ASW 3.0 viewer image browser) at 450 and 593 nm to determine AVOs.

In the case of `C[C@@H]1CC[C@H]2[C@@H](C)C(=O)O[C@@H]3O[C@@]4(C)CC[C@@H]1[C@]32OO4` [ART, Artemisinin], the “Differential Count % B (Basophils)” value ([1]; ART 6.25 mg/kg body wt) is reported as 0%, the “Differential Count % E (Eosinophils)” value ([1]; ART 6.25 mg/kg body wt) is reported as 0% and the “Differential Count % L (Lymphocytes)” value ([1]; ART 6.25 mg/kg body wt) is reported as 67± 4.1%. For the same compound, the “Differential Count % M (Monocytes)” value ([1]; ART 6.25 mg/kg body wt) was 0%, the “Differential Count % N (Neutrophils)” value ([1]; ART 6.25 mg/kg body wt) was 33± 3.1% and the Hb ([1]; ART 6.25 mg/kg body wt) was 13.1 ± 0.45 g/dL. The “Total RBC” value ([1]; ART 6.25 mg/kg body wt) was 8.1± 0.62 10^6cells/mm^3, the “Differential Count % B (Basophils)” value ([1]; ART 12.5 mg/kg body wt) was 0% and the “Differential Count % E (Eosinophils)” value ([1]; ART 12.5 mg/kg body wt) was 0%. For the same compound, the “Differential Count % L (Lymphocytes)” value ([1]; ART 12.5 mg/kg body wt) was 72± 1.7%, the “Differential Count % M (Monocytes)” value ([1]; ART 12.5 mg/kg body wt) was 0% and the “Differential Count % N (Neutrophils)” value ([1]; ART 12.5 mg/kg body wt) was 28± 3.5%. For the same compound, the Hb ([1]; ART 12.5 mg/kg body wt) was 14.1 ± 0.47 g/dL, the “Total RBC” value ([1]; ART 12.5 mg/kg body wt) was 7.8± 0.38 10^6cells/mm^3 and the “Total WBC” value ([1]; ART 12.5 mg/kg body wt) was 8.3± 1.8 10^3 cells/mm^3. For the same compound, the “Differential Count % B (Basophils)” value ([1]; ART 25 mg/kg body wt) was 0%, the “Differential Count % E (Eosinophils)” value ([1]; ART 25 mg/kg body wt) was 0% and the “Differential Count % L (Lymphocytes)” value ([1]; ART 25 mg/kg body wt) was 74± 3.4%. The “Differential Count % M (Monocytes)” value ([1]; ART 25 mg/kg body wt) was 0%, the “Differential Count % N (Neutrophils)” value ([1]; ART 25 mg/kg body wt) was 26± 2.3% and the Hb ([1]; ART 25 mg/kg body wt) was 14.7 ± 0.39 g/dL. The “Total RBC” value ([1]; ART 25 mg/kg body wt) was 8.2± 0.34 10^6cells/mm^3, the “Total WBC” value ([1]; ART 25 mg/kg body wt) was 8.75± 2.6 10^3 cells/mm^3 and the “Differential Count % B (Basophils)” value ([1]; ART 50 mg/kg body wt) was 0%. For the same compound, the “Differential Count % E (Eosinophils)” value ([1]; ART 50 mg/kg body wt) was 0%, the “Differential Count % L (Lymphocytes)” value ([1]; ART 50 mg/kg body wt) was 70± 2.2% and the “Differential Count % M (Monocytes)” value ([1]; ART 50 mg/kg body wt) was 1%. For the same compound, the “Differential Count % N (Neutrophils)” value ([1]; ART 50 mg/kg body wt) was 29 ± 3.2%, the Hb ([1]; ART 50 mg/kg body wt) was 13.8 ± 0.41 g/dL and the “Total RBC” value ([1]; ART 50 mg/kg body wt) was 8.1± 0.41 10^6cells/mm^3. For the same compound, the “Total WBC” value ([1]; ART 50 mg/kg body wt) was 8.3± 1.44 10^3 cells/mm^3, the “mean survival of tumor-bearing mice treated with ART” value ([2]; Kaplan-Meier plot, untreated succumbed within 50 days) was about 90 days and the MST ([2]; ART 6.25 mg/kg body wt) was 48.2 ± 17.3 days. It also gave an MST ([2]; ART 12.5 mg/kg body wt) of 61.3 ± 8.9 days, an MST ([2]; ART 25 mg/kg body wt) of 75.4 ± 7.1 days and an MST ([2]; ART 50 mg/kg body wt) of 88.3 ± 8.9 days. For the same compound, the “tumor weight and volume” value [3] was “Significant decrease”, the IC50 [4] was 1000 nM and the “percentage of G2/M cell count” value [5] was “significant increase”. The “expression of autophagic markers, beclin1 and LC3α/β” value [6] was “decreased expression” and the “percentage of autophagic cells” value [7] was “dose-dependent decrease”.
